Experimental findings from patent US9597274B2, “Peptides and their use in the treatment of skin” (Avon Products, Inc., priority 2015, dated 2017) are described below.

Experiment [1] relates to Human dermal fibroblast cells. As to the kind of experiment: Pro-collagen I secretion into the media (HTRF human pro-collagen I kit) after 48 h peptide treatment. It is filed as cell-based. The following applies: percent change relative to vehicle control. How it is done: (§1) Human dermal fibroblast cells were grown in a 96 well plate in DMEM media (available from Corning, N.Y.) supplemented with 10% Fetal Bovine Serum (FBS) and L-glutamine (0.07×10^5 cells/plate). After reaching about 75% confluence, cells were transferred into DMEM media without FBS and incubated for 4-6 hours. Next, cells were treated with a peptide at 0.00001%, 0.0001%, 0.001% final concentration in DMEM media without FBS for 48 h. After treatment, the media were collected and cell viability was measured using MTT. The amount of collagen secreted was tested in the media using HTRF human pro-collagen I kit (available from Cisbio Inc., Bedford, Mass.). The amount of secreted Hyaluronic Acid (HA) was tested in the media using HA Elisa kit (available from Corgenix, Broomfield, Colo.).
(§2) The results are summarized in Table 12 below as percent change of pro-collagen I and/or HA production relative to vehicle control (peptide concentrations provided in parentheses) using the following keys: […]
For orientation: Time-resolved FRET reads energy transfer from a long-lived donor to a nearby acceptor.

Experiment [2] has as its system Human dermal fibroblast cells. As to the kind of experiment: Secreted hyaluronic acid (HA) in the media (HA Elisa kit) after 48 h peptide treatment. The experiment is classed as cell-based. To be noted: percent change relative to vehicle control. How it is done:
as §1, §2

Where [3] appears, read: peptide tested at 0.00001%, 0.0001%, 0.001%, concentration not given.

For GDALQPE (listed as Homo sapiens), in experiment [1] (setting [3]), the “Increase in Pro-Collagen I Production” value was 0 (0: <10%). The “Increase in HA Production” value in experiment [2] (setting [3]) is 0 (0: <20%).

LENTKRS (listed as Homo sapiens): in experiment [1] (setting [3]), the “Increase in Pro-Collagen I Production” value is given as 0 (0: <10%). Also, the “Increase in HA Production” value in experiment [2] (setting [3]) is reported as 0 (0: <20%).

Regarding LRLK (listed as Homo sapiens), the “Increase in Pro-Collagen I Production” value in experiment [1] (setting [3]) is 0 (0: <10%). The “Increase in HA Production” value in experiment [2] (peptide concentration 0.001%) is on record as “+(0.001%) (+: 20-50%)”.

With MVV (listed as Homo sapiens), the “Increase in Pro-Collagen I Production” value in experiment [1] (setting [3]) is 0 (0: <10%). The “Increase in HA Production” value in experiment [2] (peptide concentration 0.0001%) is “+(0.0001%) (+: 20-50%)”.

Consider QILSKLRL (listed as Homo sapiens), for which the “Increase in Pro-Collagen I Production” value in experiment [1] (peptide concentration 0.001%) is “+(0.001%) (+: 10-30%)”.

For QPED (listed as Homo sapiens), the “Increase in Pro-Collagen I Production” value in experiment [1] (setting [3]) is 0 (0: <10%). Besides, in experiment [2] (setting [3]), the “Increase in HA Production” value is given as 0 (0: <20%).
